Molecular target: T1, ICAT (inhibitor of β-catenin and T-cell factor; β-catenin-interacting protein 1) (Homo sapiens, UniProt Q9NSA3)
T1 sequence (Q9NSA3 1-81): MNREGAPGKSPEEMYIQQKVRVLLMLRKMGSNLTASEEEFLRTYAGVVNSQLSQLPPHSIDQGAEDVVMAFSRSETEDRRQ
Test: MST with EGFP-ICAT in cell lysate
Format: binding

CC1=CC(=O)[C@@H](O)[C@]2(C)[C@H]3[C@@H](O)[C@H](O)[C@]4(C)OC[C@@]35[C@@H](C[C@@H]12)OC(=O)[C@H](O)[C@]54O [BD, Bruceine D]
Kd: 33.2 µM

From paper PMC8642446 (Acta Pharmaceutica Sinica. B, 2021)
